Data as given in US9598463B2, “Mucin hypersecretion inhibitors and methods of use” (BIOMARCK PHARMACEUTICALS, LTD., priority 2005, dated 2017).
Where a SMILES comes first, the peptide text is derived from it. The star is where a group is joined. Myristoyl = CCCCCCCCCCCCCC(=O)*

Test: Qualitative solubility of test peptides in 0.5 N saline
Format: physicochemical
Settings: pH 6.5, 20° C. (table title)
Procedure: Various test peptides (1 to 5 mg each) were weighed out accurately in individual 2 mL screw cap glass vials and aliquots of 25 μL of 0.5 N saline, pH 6.5, were added at 25° C. and ambient pressure. The solubility was evaluated visually. If the test peptide dissolves completely with the first aliquot of saline, its solubility was calculated and designated as more than the calculated amount. […] Similarly, if 1.7 mg of a test peptide fails to dissolve in 1.7 mL of 0.5 N saline, its solubility is stated as <1.0 mg/mL.
Work on `CC(=O)N[C@@H](C)C(=O)N[C@@H](CCCCN)C(=O)NCC(=O)N[C@@H](CCC(=O)O)C(N)=O` [Ac-peptide 219-NH2] (Ac-AKGE-NH2) yielded a solubility of over 200 mg/mL.
`CCCCCCCCCCCCCC(=O)NCC(=O)N[C@@H](C)C(=O)N[C@@H](CCC(N)=O)C(=O)N[C@@H](Cc1ccccc1)C(=O)N[C@@H](CO)C(=O)N[C@@H](CCCCN)C(=O)N[C@H](C(=O)N[C@@H](C)C(=O)N[C@@H](C)C(=O)N[C@@H](CCCCN)C(=O)NCC(=O)N[C@@H](CCC(=O)O)C(N)=O)[C@@H](C)O` [myr-peptide 79-NH2] (Myristoyl-GAQFSKTAAKGE-NH2) gave a solubility of under 1 mg/mL.
Compound `CCCCCCCCCCCCCC(=O)NCC(=O)N[C@@H](C)C(=O)N[C@@H](CCC(N)=O)C(=O)N[C@@H](Cc1ccccc1)C(=O)N[C@@H](CO)C(=O)N[C@@H](CCCCN)C(=O)N[C@H](C(=O)N[C@@H](C)C(=O)N[C@@H](C)C(=O)O)[C@@H](C)O` [myr-peptide 121] (Myristoyl-GAQFSKTAA-OH) has a solubility of under 1 mg/mL.
`CCCCCCCCCCCCCC(=O)N[C@H](C(=O)N[C@@H](C)C(=O)N[C@@H](C)C(=O)N[C@@H](CCCCN)C(=O)NCC(=O)N[C@@H](CCC(=O)O)C(=O)N[C@@H](C)C(=O)N[C@@H](C)C(=O)O)[C@@H](C)O` [myr-peptide 143] (Myristoyl-TAAKGEAA-OH) showed a solubility of under 1 mg/mL.
In the case of `CCCCCCCCCCCCCC(=O)N[C@@H](C)C(=O)N[C@@H](C)C(=O)N[C@@H](CCCCN)C(=O)NCC(=O)N[C@@H](CCC(=O)O)C(=O)N[C@@H](C)C(=O)O` [myr-peptide 179] (Myristoyl-AAKGEA-OH), the solubility is reported as under 1 mg/mL.
`CCCCCCCCCCCCCC(=O)N[C@@H](C)C(=O)N[C@@H](CCCCN)C(=O)NCC(=O)N[C@@H](CCC(=O)O)C(=O)O` [myr-peptide 219] (Myristoyl-AKGE-OH) gave a solubility of under 1 mg/mL.
Work on `CCCCCCCCCCCCCC(=O)NCC(=O)N[C@@H](C)C(=O)N[C@@H](CCC(N)=O)C(=O)N[C@@H](C)C(=O)N[C@@H](CO)C(=O)N[C@@H](CCCCN)C(=O)N[C@H](C(=O)N[C@@H](C)C(=O)N[C@@H](C)C(=O)N[C@@H](CCCCN)C(=O)NCC(=O)N[C@@H](CCC(=O)O)C(N)=O)[C@@H](C)O` [myr-peptide 237-NH2] (Myristoyl-GAQASKTAAKGE-NH2) yielded a solubility of under 1 mg/mL.
In the case of `CCCCCCCCCCCCCC(=O)NCC(=O)N[C@@H](C)C(=O)N[C@@H](CCC(N)=O)C(=O)N[C@@H](C)C(=O)N[C@@H](CO)C(=O)N[C@@H](CCCCN)C(=O)N[C@H](C(=O)N[C@@H](C)C(=O)N[C@@H](C)C(=O)N[C@@H](CCCCN)C(=O)NCC(=O)N[C@@H](CCC(=O)O)C(=O)O)[C@@H](C)O` [myr-peptide 237] (Myristoyl-GAQASKTAAKGE-OH), the solubility is reported as under 1 mg/mL.
In the case of `CCCCCCCCCCCCCC(=O)NCC(=O)N[C@@H](C)C(=O)N[C@@H](CCC(=O)O)C(=O)N[C@@H](Cc1ccccc1)C(=O)N[C@@H](CO)C(=O)N[C@@H](CCCCN)C(=O)N[C@H](C(=O)N[C@@H](C)C(=O)N[C@@H](C)C(=O)N[C@@H](CCCCN)C(=O)NCC(=O)N[C@@H](CCC(=O)O)C(=O)O)[C@@H](C)O` [myr-peptide 238] (Myristoyl-GAEFSKTAAKGE-OH), the solubility is reported as over 2 mg/mL.
For Ac-AAKGEA-OH [Ac-peptide 179], the solubility was over 150 mg/mL.
Work on Ac-AAQFSKTAAK-OH [Ac-peptide 242] yielded a solubility of over 100 mg/mL.
Work on Ac-AQFSKTAAKGE-NH2 [Ac-peptide 93-NH2] yielded a solubility of over 90 mg/mL.
Work on Ac-FSKTAAKGE-NH2 [Ac-peptide 124-NH2] yielded a solubility of over 100 mg/mL.
Ac-GAAFSKTAAK-OH [Ac-peptide 243] showed a solubility of over 50 mg/mL.
Work on Ac-GAQASKTAAK-OH [Ac-peptide 236] yielded a solubility of over 80 mg/mL.
In the case of Ac-GAQFAKTAAK-OH [Ac-peptide 244], the solubility is reported as over 120 mg/mL.
Ac-GAQFSATAAA-OH [Ac-peptide 249] showed a solubility of under 1 mg/mL.
Ac-GAQFSATAAK-OH [Ac-peptide 245] gave a solubility of over 100 mg/mL.
In the case of Ac-GAQFSKAAAK-OH [Ac-peptide 247], the solubility is reported as over 100 mg/mL.
For Ac-GAQFSKTA-OH [Ac-peptide 137], the solubility was over 200 mg/mL.
Work on Ac-GAQFSKTAA-OH [Ac-peptide 121] yielded a solubility of over 20 mg/mL.
Work on Ac-GAQFSKTAAA-OH [Ac-peptide 248] yielded a solubility of over 100 mg/mL.
Compound Ac-GAQFSKTAAAGE-OH [Ac-peptide 239] has a solubility of over 50 mg/mL.
